This is an account of results in patent US8148347B2, “Inhibition of interaction of PSD93 and PSDS95 with nNOS and NMDA receptors” (The Johns Hopkins University, priority 2000, dated 2012).

Format in all cases: in vivo, rat
Data set [1] deals with Male Sprague-Dawley rats. Description: radiant heat tail-flick test, baseline and NMDA-induced thermal hyperalgesia. An excerpt: To examine whether PSD-95/SAP90 was required for thermal hyperalgesia triggered through NMDA receptor activation, we made an antisense oligonucletide (OND) corresponding to the PDZ domain nucleotides 241 to 258 (5′-[…]-3′; SEQ ID NO: 1) of rat PSD-95/SAP90 mRNA, as well as the sense OND and missense OND (5′-[…]-3′; SEQ ID NO: 2). All of the ONDs were compared to the Gene Bank database (GenBank accession number M96853) and found not to be complementary to any registered nucleotide sequences. The effects of antisense, sense and missense ONDs on baseline and NMDA-induced tail-flick latencies were assessed. […] To identify that NMDA-induced thermal hyperalgesia was produced specifically through NMDA receptor activation but not non-NMDA receptor activation, we observed the effects of a selective NMDA receptor antagonist, MK-801, and a selective non-NMDA receptor antagonist, DNQX, on NMDA-induced facilitation of the tail-flick reflex. […] In addition, motor weakness or dysfunction was not observed in locomotor tests (including placing reflex, grasping reflex and righting reflex) in any of the treated animals including the antisense groups (data not shown).
Animal preparation and behavioral testing. All experiments were carried out with the approval of the Animal Care Committee at the Johns Hopkins University and were consistent with the ethical guidelines of the National Institutes of Health and the International Association for the Study of Pain. Male Sprague-Dawley rats (250-300 g) were implanted with an intrathecal PE-10 catheter into the subarachnoid space at the rostral level of the spinal cord lumbar enlargement through an incision at the atlanto-occipital membrane according to the method as described.^25,27 One week or more later, the rats were injected intrathecally with saline or ONDs every 24 h for 4 days. On the fifth day, saline, NMDA, MK-801+NMDA or DNQX+NMDA was given intrathecally. Nociception was evaluated by the radiant heat tail-flick test. The doses and time point of maximal effect of NMDA used in the present study were determined based on a previous study.^24 The tail-flick apparatus (Model 33B Tail Flick Analgesy Meter, IITC Life Science, Woodland Hills, Calif., USA) generated a beam of radiant heat that was focused on the underside of the tail, 5 cm from the tip. A cut-off time latency of 13.5 s was used to avoid tissue damage to the tail. Nociception was assessed by the time required to induce tail-flick after applying radiant heat to the skin of the tail. The latency of reflexive removal of the tail from the heat was measured automatically to the nearest 0.01 s. Tail-flick latency was measured five times, and the basal latency was defined as the mean. Tail-flick data were expressed as percentage change calculated by the formula: (trial latency−baseline latency)/(baseline latency)×100%. Finally, PE-10 catheter position from each animal was confirmed when lumbar enlargement segments were removed for western blot analysis. PCR analysis of PSD-95/SAP90 in rat spinal cord. The cDNA sequences encoding portions of the PSD-95/SAP90 were amplified using the following synthetic OND primers: PSD1 (5′-[…]-3′; SEQ ID NO: 3) and PSD2 (5′-[…]-3′; SEQ ID NO: 4) for amplification of PSD-95/SAP90 codon positions 789-1525. RNA samples (1 μg) from rat spinal cord, brain and muscle were reverse transcribed to generate first-strand cDNA. The PCR reactions were performed for 25 cycles. Each cycle included 30 s at 94° C., 30 s at 55° C., and 30 s at 71° C. The PCR products were directly cloned into the TA cloning vector (Invitrogen Co., San Diego, Calif., USA) and verified by automatic DNA sequencing. Fusion protein construction and preparation. cDNA sequence encoding portion of PSD-95/SAP90 was amplified by PCR and subcloned in-frame into PGEX-2T (GIBCO, Rockville, Md., USA) via the BamHI and EcoRI restriction digest sites. […]
(In general: Thermal pain tests record how soon the animal reacts.)

The test system of data set [2] is Male Sprague-Dawley rats. Description: tests of locomotor function (placing, grasping, righting reflex) and general behaviors. Conditions: saline pretreatment + 1.25 μg NMDA intrathecal; five trials, mean (SD). On the procedure: The effects of ODNs on locomotor function were examined using the following methods.^52 The animals were organized randomly into six groups: control (saline); 12.5 antisense ODN; 25 μg antisense ODN; 50 μg antisense ODN; 50 μg sense ODN; 50 μg missense ODN. The rats were pretreated with ODNs or saline in the manner described above. On the fifth day, 10 μl of saline was injected intrathecally for each rat. In some saline or antisense ODN (50 μg)-treated rats, fresh NMDA solution (1.25 μg/10 μl) was injected intrathecally. The following tests were performed with the experimenter blind to which group was treated with the agents: (1) Placing reflex: The rat was held with the hind limbs slightly lower than the forelimbs, and the dorsal surfaces of the hind paws were brought into contact with the edge of a table. The experimenter recorded whether the hind paws were placed on the table surface reflexively; (2) Grasping reflex: The rat was placed on a wire grid and the experimenter recorded whether the hind paws grasped the wire on contact; (3) Righting reflex: The rat was placed on its back on a flat surface and the experimenter noted whether it immediately assumed the normal upright position. […] In addition, the rat general behaviors including spontaneous activity were observed.

The test system of data set [3] is Male Sprague-Dawley rats. Description: measurement of isoflurane MAC (tail clamp). Particulars: saline-treated group, intrathecal NMDA 1.25 μg. On the procedure:
The ODNs were dissolved in saline before administration. As described in the previous work,^49 the rats were injected intrathecally with saline (10 μl) (control), antisense ODNs (12.5, 25, 50 μg/10 μl), sense ODN (50 μg/10 μl) and missense ODN (50 μg/10 μl), respectively, followed by an injection of 10 μl of saline to flush the catheter, every 24 h for 4 days.
(§1) On the fifth day after saline or ODNs injection, each rat was placed in a clear plastic cone and anesthetized with 5% isoflurane in oxygen for three to five minutes. After tracheostomy, the trachea of each animal was intubated with a 16-gauge polyethylene catheter. The inspired isoflurane concentration was reduced to 2%, and the animals breathed spontaneously until cannulation of a carotid artery and a jugular vein with PE-50 tubing was accomplished. The isoflurane concentration was decreased further to 1.5%, and ventilation was controlled by a Harvard Animal Respirator (Harvard Apparatus, South Natick, Mass.) adjusted according to the measurement of arterial blood gases to maintain normal partial pressure of oxygen (PO2=91-94 mmHg), partial pressure of carbon dioxide (PCO2=33-41 mmHg) and pH (7.4-7.44). Electrocardiography and systolic and diastolic blood pressure were monitored using a Grass Polygraph (Astroumed Grass, Quincy, Mass.) and Gould Pressure Transducer (Gould, Cleveland, Ohio). Rectal temperature was maintained between 36.5 and 37.5° C. by use of a heating blanket and warming lights.
A PE-10 catheter was introduced through and beyond the endotracheal tube until obstruction to passage was met and then withdrawn 1 to 2 mm. For isoflurane MAC measurement, the PE-10 catheter was connected to a parameter airway gas monitor (Datex-Engstrom, Inc., Tewksbury, Mass.). After stabilizing about 30 minutes, MAC was measured according to the methods described previously^34 using a long hemostat (8-inch Rochester Dean Hemostatic Forceps) clamped to the first ratchet lock on the tail for 1 min. The tail was always stimulated proximal to a previous test site. Gross movement of the head, extremities, or body was taken as a positive test result, whereas grimacing, swallowing, chewing, or tail flick were considered negative results. The isoflurane concentration was reduced in decrements of 0.12 to 0.15% until the negative response became positive, with 12-15 min equilibration allowed after changes in concentration.^50,51 The MAC was considered to be the concentration midway between the highest concentration that permitted movement in response to the stimulus and the lowest concentration that prevented movement. Finally, intrathecal PE-10 catheter position from each animal was confirmed.
(§2) In some saline-treated rats, after initial baseline MAC determination, NMDA at the dose of 1.25 μg^38 or saline was injected intrathecally in a volume of 10 μl saline, followed by an injection of 10 μl saline to flush the catheter. Fresh NMDA solution was prepared for each experiment. […] At this isoflurane concentration, 10 min after the intrathecal injection of NMDA, the animals were tested again for reactivity to tail clamp. The concentration of isoflurane was increased, and response to tail clamp was checked every 12-15 min thereafter until a negative response was achieved. In some antisense ODN (50 μg)-treated rats, after initial MAC determination, NMDA or saline was also administered intrathecally. The MAC for isoflurane was again determined following the aforementioned procedures.

Data set [4] relates to Male Sprague-Dawley rats. Description: blood pressure and heart rate during isoflurane anesthesia. Conditions: saline-treated group, intrathecal NMDA 1.25 μg.
Source text: as §1, §2

As to `O=[N+]([O-])c1cc2nc(O)c(O)nc2cc1[N+](=O)[O-]` [DNQX], the “facilitation of the tail-flick reflex stimulated by NMDA” value in the data set with Male Sprague-Dawley rats [1] (intrathecal DNQX 20 nM/10 μl) is “had no effect”. Further, the “ΔTF latency (%)” value in the data set with Male Sprague-Dawley rats [1] (intrathecal DNQX 20 nM/10 μl + NMDA) was −22.6%.
Take `C[C@]12N[C@H](Cc3ccccc31)c1ccccc12` [MK-801]: in the data set with Male Sprague-Dawley rats [1] (intrathecal MK-801 10 nM/10 μl), the “facilitation of the tail-flick reflex stimulated by NMDA” value is “completely abolished”. For the same molecule, the “ΔTF latency (%)” value in the data set on Male Sprague-Dawley rats [1] (intrathecal MK-801 10 nM/10 μl + NMDA) amounted to 0.9%.
Consider `CN[C@H](CC(=O)O)C(=O)O` [NMDA, N-methyl-D-aspartate], for which the “ΔTF latency (%)” value with Male Sprague-Dawley rats [1] (NMDA alone, intrathecal 10 nM/10 μl) is reported as −25.84%. For the same molecule, the “facilitation of the tail-flick reflex” value in the data set with Male Sprague-Dawley rats [1] (intrathecal NMDA 5 nM/10 μl (data not shown)) was “induced a facilitation of the tail-flick reflex”. Besides, in the data set on Male Sprague-Dawley rats [1] (intrathecal NMDA 10 nM/10 μl, baseline 6.58±0.57), the “tail-flick latency after NMDA” value was determined as 4.88 ± 0.41 s. Further, in the data set with Male Sprague-Dawley rats [2], the Grasping is on record as 5 (0), the Placing is given as 5 (0) and the Righting is 5 (0). In addition, the “increase from isoflurane control MAC” value in the data set on Male Sprague-Dawley rats [3] worked out at 15%. In the data set on Male Sprague-Dawley rats [4], this molecule gave a Heart rate of 529.20±55.20 beats/min, a diastolic blood pressure of 118.30±7.81 mmHg and a systolic blood pressure of 135.70±3.38 mmHg.
